# US20260284020A1, “LATS KINASE INHIBITOR TO TREAT RETINAL DEGENERATION” (Children's Hospital Los Angeles, priority 2023, published 2026)
# “Also recorded” adds a separate entry of the source. Read-outs that look alike come from different tables or passages of the source.
# How the values were obtained:
# [1] = tested on: primary human fetal RPE monolayers; experiment: In vitro cell proliferation (EdU+ cells) in RPE monolayers; assay type: cell-based; details: for percentage of EdU+ cells / EdU+ cells compared to DMSO in the absence of injury (in words): 96 hours; for percentage of EdU+ cells: 1 μM, mean±SE; for EdU+ cells compared to DMSO in the absence of injury (in words): uninjured monolayers
# Experimental: Following 72-hour acclimation period, RPE monolayers were then subjected to a controlled horizontal scratch using the WoundMaker Tool™ (Essen BioScience Ltd., Welwyn Garden City, United Kingdom) according to the protocol provided by the manufacturer. Wells were subsequently washed 1-2 times with their respective media in order to remove cell debris. Cells were then treated with either 1 μM DMSO (as control) or 1 μM TDI-011536 dissolved in either FBS-containing or FBS-free media. To label and track proliferating cells, cells were incubated with 10 μM 5-Ethynyl-2′-deoxyuridine (EdU) for 96 hours.
# Ninety-six hours after the scratch, cells were immediately fixed with 4% paraformaldehyde (PFA) in phosphate-buffered saline (PBS) for 15 minutes at room temperature (RT). Cells were washed three times with PBS in between each step. Following fixation, cells were blocked and permeabilized with 3% bovine serum albumin (BSA) and 0.1% Triton X-100 in PBS for 2 hours at RT. Cells were then incubated with an EdU reaction cocktail according to the manufacturer's instructions for 30 minutes at RT, protected from light. Then, cells were incubated overnight with primary antibodies diluted in 3% BSA in PBS. The following morning, cells were incubated with secondary antibodies diluted in 3% BSA in PBS for 2 hours at RT, protected from light. Cells were counterstained with DAPI and then washed. A list of reagents and dilutions used can be found in Table 1.
# Regions measuring 800 μm^2 at various distances from the scratch within each well were analyzed. In uninjured wells, three regions were randomly selected within each well. In scratched wells, three regions were centered within the original scratch area (scratch region), which was determined by overlaying the brightfield image taken immediately post-scratch over the fluorescence images 96 hours post-scratch. Another three regions were selected immediately adjacent to the original scratch area but not within it (proximal region). Finally, three additional regions at least 800 μm from the original scratch area were selected (distal region). Apart from scratch regions, only regions that were intact and confluent immediately post-scratch were analyzed. Regions with significant cell loss or those that were otherwise not confluent following the scratch were excluded from analysis.
# Within each region, cell proliferation was quantified by dividing EdU/DAPI doubly positive cells by the total number of DAPI+ cells, expressed as a percentage. PAX6 expression was quantified as the ratio of PAX6+ nuclei among EdU/DAPI doubly positive nuclei, also expressed as a percentage.
# To assess the effect of Lats kinase inhibition on cell proliferation in the absence of injury, RPE monolayers were incubated with EdU for 96 hours with the addition of LKI or DMSO. Cell proliferation was quantified as the percentage of EdU+ cells within 3 randomly selected regions within each well.
# To assess whether Lats kinase inhibition accelerates wound healing via RPE proliferation in vitro, and the mechanism of wound closure with Lats kinase inhibition, RPE monolayers were incubated with EdU following the initial scratch and remained exposed to EdU for 96 hours. At 96 hours, cells were fixed and stained for various cell markers. The percentage of EdU+ cells within scratch, proximal, and distal regions was recorded (FIG. 2A).
# [2] = tested on: RPE injury by laser photocoagulation in Dutch-belted rabbits; experiment: In vivo laser injury model: fundus photos and OCT imaging; design: species or system rabbit; details: listed as LKI; for OCT appearance of RPE layer at laser spots compared to control / pigmentation of laser spots on fundus photos compared to control: intravitreal 50 μL of 15 mM
# From the text: Laser photocoagulation was used as a model for RPE injury in vivo. Prior to laser photocoagulation, Dutch-belted rabbits were sedated with ketamine and xylazine. Eyes were anesthetized with topical proparacaine and dilated with phenylephrine and tropicamide. Lubricating drops and gel were applied to prevent desiccation of the cornea.
# To evaluate the effect of LATS kinase inhibition on the RPE injury response in vivo, following sedation and pharmacologic dilation, laser photocoagulation was delivered in a 6×6 grid pattern to both eyes with a 532 nm green laser (Iridex Corporation, Mountain View, CA, USA) mounted on an indirect ophthalmoscope. Power was set to 170 mW and pulse duration was set to 40 ms. Following the laser procedure, fundus photos of both eyes were obtained using a 28-diopter lens and smartphone. OCT images of both eyes were obtained on a SPECTRALIS (Heidelberg Engineering, Heidelberg, Germany) imaging system. Fundus photos and OCT images were again obtained at 1- and 4-week time points.
# Dutch-belted rabbits were sedated and underwent photocoagulation of both eyes as described above, with the exception of lesion intensity alteration. Instead, laser power was held at 170 mW and pulse duration remained at 40 ms.
# Following the laser procedure, the eyes were anesthetized once more with topical proparacaine. Povidone-iodine was applied to the conjunctiva or sclera using sterile Q-tips. Either 50 μL of 15 mM LATS kinase inhibitor (LKI), or vehicle control, was injected per eye using 1 mL Luer-lock syringe with a 27G 1½ inch needle. The second generation LKI, TDI-011536, was used as a micro-suspension formulation prepared in phosphate buffer solution (PBS; Sigma) supplemented with 0.5% carboxymethyl cellulose (Sigma) and 0.5% Kolliphor P 188 Bio (BASF Pharma). Intravitreal injections containing LKI were administered in the right eye and control injections were administered in the left eye. Injections were administered 1-2 mm posterior to the superotemporal or superonasal limbus and delivery of each compound was confirmed on indirect ophthalmoscopy.
# To evaluate the effect of Lats kinase inhibition on the RPE injury response in vivo, 17 Dutch-belted rabbits received photocoagulation procedure to cause focal disruptions of the RPE and photoreceptor layers in a 6×6 grid of laser spots. Following photocoagulation, each animal received an intravitreal injection of 50 μL of 15 mM LKI in the right eye ([…]) and 50 μL vehicle in the left eye (n=17 eyes). Fundus photos and OCT imaging were performed immediately following the laser procedure and at 1- and 4-week time points. Three independent experiments were performed.
# RPE monolayers = experiment: Toxic effects in vitro; assay type: cell-based, human
# [3] = proximal regions, FBS-free media
# [4] = scratch regions, FBS-free media
smiles,measurement,setting,value
O=C(/N=c1\scc(CO)n1Cc1ccccc1)c1c[nH]c2ncccc12 [TDI-011536],percentage of EdU+ cells in monolayers not subjected to injury (in words),"[1]; discussion, media not stated",only a modest increase
same,percentage of EdU+ cells,"[1]; distal regions, FBS-free media",3.20±0.48%
same,"difference in percentage of EdU+ cells, LKI vs control","[1]; distal regions, FBS-free media",0.91±0.62%
same,percentage of EdU+ cells compared to control (in words),"[1]; distal regions, FBS-free media",no significant difference
same,percentage of EdU+ cells,[1]; [3],10.25±1.30%
same,"difference in percentage of EdU+ cells, LKI vs control",[1]; [3],7.36±1.38%
same,percentage of EdU+ cells compared to control (in words),[1]; [3],significantly higher percentage of EdU+ cells
same,percentage of EdU+ cells,[1]; [4],40.11±2.07%
same,"difference in percentage of EdU+ cells, LKI vs control",[1]; [4],6.88±2.80%
same,percentage of EdU+ cells compared to control (in words),[1]; [4],significantly higher percentage of EdU+ cells
same,percentage of EdU+ cells compared to control (in words),"[1]; scratched monolayers, FBS-containing media",significantly higher percentage of EdU+ cells at the scratch site and proximal areas but not distal areas
same,EdU+ cells compared to DMSO in the absence of injury (in words),[1]; FBS-containing media,significantly more EdU+ cells
same,EdU+ cells compared to DMSO in the absence of injury (in words),[1]; FBS-free media,significantly more EdU+ cells
same,OCT appearance of RPE layer at laser spots compared to control,[2]; 1 week after laser,thickening of the RPE layer with associated shadowing; also recorded: Shadowing (*) was common; also recorded: appeared thicker with increased shadowing
same,pigmentation of laser spots on fundus photos compared to control,[2]; 1 week after laser,hyperpigmentation of laser spots; also recorded: increased pigmentation
same,OCT appearance of RPE layer at laser spots compared to control,[2]; 4 weeks after laser,more pronounced; also recorded: Shadowing (*) was common; also recorded: significantly increased thickness of the RPE layer
same,pigmentation of laser spots on fundus photos compared to control,[2]; 4 weeks after laser,more pronounced; also recorded: robust increase in pigmentation
same,persistence of LKI microsuspension (depot) in the eye,"[2]; rabbit eye, intravitreal 50 μL of 15 mM microsuspension",visible after 1 week; also recorded: up to a month
same,toxic effects in vitro,RPE monolayers,No toxic effects
same,toxic effects in vitro,RPE monolayers; listed as LKI,no toxic effects
